Read-outs that look alike come from different tables or passages of the source.
Test system: male C57BL/6 mice
Assay: 55° C. warm-water tail-flick test (antinociception)
Format: in vivo
Conditions: Mus musculus
Description: Antinociception was assessed using the 55° C. warm-water tail-flick test. The latency to the first sign of a rapid tail flick was taken as the behavioral endpoint. Each mouse was first tested for baseline latency by immersing its tail in the water and recording the time to response. Mice not responding within 2 secs were excluded from further testing. Responsive mice were then s.c. administered the test compound and tested for antinociception at 30 min, 60 min, 90 min, and 120 min time points afterward. Antinociception was calculated using the following formula: percentage of antinociception=100×(test latency−control latency)/(20−control latency).
The following new compounds were also made and tested to determine the half maximal possible effective dose, or ED50 (mg/kg), in mice, using one of: the warm water tail-flick test as in Table II, spared nerve injury, chronic constriction injury, or Complete Freund's adjuvant induced inflammatory pain. The symbols in the last column are: + indicates ED 50>50 mg/kg; ++ indicates ED 50 is less than or equal to 30 mg/kg.

[1] = half maximal effective dose in mice, using one of: warm water tail-flick test, spared nerve injury, chronic constriction injury, or Complete Freund's adjuvant induced inflammatory pain (not stated which per compound), read-out: Biological Activity (ED50)

COc1cccc(C(C)(C)N2CC[C@@](CCc3ccc(C#N)cc3)(C(N)=O)C2)c1 [Compound 148, (R)-3-(4-cyanophenethyl)-1-(2-(3-methoxyphenyl)propan-2-yl)pyrrolidine-3-carboxamide]
ED50 [1]: > 50 mg/kg

Cc1ccc(C(C)(C)N2CCC(CCc3ccc(F)s3)(c3nccn3C)C2)cn1 (single isomer, unassigned) [Compound 114]
ED50 (sc, 0.5 h, compounds of Table I, s.c., 30 min, 55° C. water, configuration tested as in Table II, read-out: ED50 (mg/kg) at 30 min on C57BL/6 mice in Warm-water Tail-flick Test): ≤ 30 mg/kg

CC(O)[C@]1(CCc2ccc(F)cc2)CCN(C(C)(C)c2ccc(S(C)(=O)=O)cc2)C1 (single isomer, unassigned) [Compound 38, (R or S)-1-((R)-3-(4-fluorophenethyl)-1-(2-(4-(methylsulfonyl)phenyl)propan-2-yl)pyrrolidin-3-yl)ethan-1-ol]
ED50 [1]: > 50 mg/kg

CC(C)(c1ccccn1)N1CC[C@@](CCc2ccc(C#N)cc2)(c2ncc(C(F)(F)F)[nH]2)C1 [Compound 108, (R)-4-(2-(1-(2-(pyridin-2-yl)propan-2-yl)-3-(5-(trifluoromethyl)-1H-imidazol-2-yl)pyrrolidin-3-yl)ethyl) benzonitrile]
ED50 [1]: > 50 mg/kg

CC(C)(c1ccccn1)N1CC[C@@](CCc2ccccc2C#N)(C(O)C(F)(F)F)C1 (single isomer, unassigned) [Compound 135, 2-(2-((R)-1-(2-(pyridin-2-yl)propan-2-yl)-3-((R or S)-2,2,2-trifluoro-1-hydroxyethyl)pyrrolidin-3-yl)ethyl) benzonitrile]
ED50 [1]: > 50 mg/kg

CCC(C)(c1ccc(S(C)(=O)=O)cc1)N1CC[C@@](CCc2ccc(F)cc2)(COCc2ccccc2)C1 (stereo partly drawn) [Compound 34, (3R)-3-((benzyloxy)methyl)-3-(4-fluorophenethyl)-1-(2-(4-(methylsulfonyl)phenyl)butan-2-yl)pyrrolidine]
ED50 [1]: > 50 mg/kg

CC(C)(c1ccccn1)N1CC[C@](CO)(CCc2ccc3ccoc3c2)C1 [Compound 168, (R)-(3-(2-(benzofuran-6-yl)ethyl)-1-(2-(pyridin-2-yl)propan-2-yl)pyrrolidin-3-yl)methanol]
ED50 [1]: ≤ 30 mg/kg

N#Cc1ccc(CC[C@]2(C3CCO3)CCN(Cc3cccnc3)C2)cc1 (single isomer, unassigned) [Compound 21, 4-(2-((S)-3-((R or S)-oxetan-2-yl)-1-(pyridin-3-ylmethyl)pyrrolidin-3-yl)ethyl) benzonitrile]
ED50 [1]: > 50 mg/kg

CC(C)(c1ccccn1)N1CC[C@](C#N)(CCc2ccc3nonc3c2)C1 [Compound 178, (R)-3-(2-(benzo[c][1,2,5]oxadiazol-5-yl)ethyl)-1-(2-(pyridin-2-yl)propan-2-yl)pyrrolidine-3-carbonitrile]
ED50 [1]: > 50 mg/kg

CC(C)(c1ccccn1)N1CC[C@](CO)(CCc2ccc(S(C)(=O)=O)cc2)C1 [Compound 53]
ED50 [1]: > 50 mg/kg

CCOC[C@]1(CCc2ccccc2)CCN(C(C)(C)c2ccc(Br)cc2)C1 [Compound 5]
ED50 (sc, 0.5 h, compounds of Table III, s.c., 30 min, 55° C. water, configuration tested as in Table IV, read-out: ED50 (mg/kg) at 30 min on C57BL/6 mice in Warm-water Tail-flick Test (same as Table II)): ≤ 30 mg/kg

CC(C)(c1ccccn1)N1CC[C@@](/C=C/c2ccc(C(F)(F)F)o2)(COCc2ccccc2)C1 [Compound 188, (S,E)-2-(2-(3-((benzyloxy)methyl)-3-(2-(5-(trifluoromethyl)furan-2-yl)vinyl)pyrrolidin-1-yl)propan-2-yl)pyridine]
ED50 [1]: > 50 mg/kg

CC(C)(c1ccccn1)N1CC[C@@](CCc2ccc(C#N)cc2)(C(O)c2ccccc2)C1 (single isomer, unassigned) [Compound 57]
ED50 [1]: ≤ 30 mg/kg

CC(C)(c1ccccn1)N1CC[C@](/C=C/c2ccc(S(C)(=O)=O)cc2)(C2CCCO2)C1 (single isomer, unassigned) [Compound 218, 2-(2-((R)-3-((E)-4-(methylsulfonyl)styryl)-3-((R or S)-tetrahydrofuran-2-yl)pyrrolidin-1-yl)propan-2-yl)pyridine]
ED50 [1]: > 50 mg/kg

COC(C(F)(F)F)(C(F)(F)F)[C@]1(COCc2ccccc2)CCN(C2(c3ncon3)COC2)C1 [Compound 24]
ED50 [1]: > 50 mg/kg

COc1cccc(C(C)(C)N2CC[C@@](CCc3ccc(C#N)cc3)(C(=O)O)C2)n1 [Compound 158, (R)-3-(4-cyanophenethyl)-1-(2-(6-methoxypyridin-2-yl)propan-2-yl)pyrrolidine-3-carboxylic acid]
ED50 [1]: > 50 mg/kg
